Key:
[1] = tested on: Homomeric GluK1 or GluK2 receptors; test: Whole-cell patch-clamp current response, homomeric GluK1 or GluK2 receptors; format: cell-based, rat; settings: read-out: EC50 range; summary in discussion of own homomer values
GluK3 homomers = settings: read-out: glutamate EC50; ref Perrais et al, 2009a; cited from earlier work
GluK3/K5 heteromer = settings: read-out: glutamate EC50; ref Perrais et al, 2009a; cited from earlier work
GluK2/K5 receptors = settings: literature range; ref Jones et al., 1997; Alt et al., 2004; Jane et al., 2009; cited from earlier work
GluK2 receptors = settings: literature range; ref Jones et al., 1997; Alt et al., 2004; Jane et al., 2009; cited from earlier work

Row | SMILES | EC50 [1] [µM] | EC50 (GluK3 homomers) [µM] | EC50 (GluK3/K5 heteromer) [µM] | EC50 (GluK2/K5 receptors) [µM] | EC50 (GluK2 receptors) [µM]
1 | N[C@@H](CCC(=O)O)C(=O)O [glutamate] | 100 to 200 | 10000 | 6000 |  | 
2 | C=C(C)[C@H]1CN[C@H](C(=O)O)[C@H]1CC(=O)O [kainate] |  |  |  | 1 to 5 | 1 to 5
